Test results as given in the supplement of paper PMC6045584.
± gives the standard deviation of the averaged measurements.

Columns and labels:
[1] = compound: CCN(CC)CCCCNc1ncc2cc(-c3cc(OC)cc(OC)c3)c(NC(=O)NC(C)(C)C)nc2n1; assay: surviving fraction relative to DMSO-only wells; higher = less growth inhibition; details: exposure time: 5 days
Outline: (§1)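 Continuous five-day exposure to inhibitors at 0.5, 1, 5, 10, 50, 100, 500 and 1000 nM started 24 hours after log-phase tumour cell lines were seeded at 250–500 cells per well in 384-well plates. Luminescence was read after 10 minutes at room temperature. Viability is given as surviving fraction, meaning CellTiter-Glo luminescence normalised to the median of DMSO-only wells.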

[2] = compound: COc1cc2c(cc1O)CC[C@@H]1[C@@H]2CC[C@]2(C)[C@@H](O)CC[C@@H]12 [2-METHOXYESTRADIOL]; assay: as above; details: exposure time: 5 days
Outline: as §1

Test System | surviving fraction ([1]; 0.5 nM) | surviving fraction ([1]; 1 nM) | surviving fraction ([1]; 5 nM) | surviving fraction ([1]; 10 nM) | surviving fraction ([1]; 50 nM) | surviving fraction ([1]; 100 nM) | surviving fraction ([1]; 500 nM) | surviving fraction ([1]; 1000 nM) | surviving fraction ([2]; 0.5 nM) | surviving fraction ([2]; 1 nM) | surviving fraction ([2]; 5 nM) | surviving fraction ([2]; 10 nM) | surviving fraction ([2]; 50 nM) | surviving fraction ([2]; 100 nM) | surviving fraction ([2]; 500 nM) | surviving fraction ([2]; 1000 nM)
HELA CERVIX | 0.979 ± 0.028 | 0.994 ± 0.034 | 0.971 ± 0.042 | 0.984 ± 0.019 | 1.03 ± 0.047 | 1.07 ± 0.065 | 1.06 ± 0.023 | 1.13 ± 0.075 | 0.982 ± 0.043 | 1 ± 0.031 | 0.985 ± 0.013 | 0.938 ± 0.04 | 1.06 ± 0.064 | 1.11 ± 0.077 | 0.593 ± 0.045 | 0.0965 ± 0.0045
CAL72 BONE | 1.053 ± 0.0092 | 1.08 ± 0.054 | 1.08 ± 0.082 | 1.01 ± 0.024 | 0.833 ± 0.038 | 0.484 ± 0.013 | 0.281 ± 0.022 | 0.208 ± 0.026 | 1.03 ± 0.092 | 0.999 ± 0.14 | 1.01 ± 0.11 | 1.02 ± 0.13 | 1.05 ± 0.099 | 1.02 ± 0.18 | 0.848 ± 0.12 | 0.447 ± 0.2
MDAMB468 BREAST | 0.929 ± 0.043 | 0.959 ± 0.06 | 0.996 ± 0.005 | 0.985 ± 0.003 | 0.975 ± 0.055 | 1.1 ± 0.033 | 0.983 ± 0.033 | 0.956 ± 0.021 | 0.994 ± 0.12 | 1.08 ± 0.056 | 1.03 ± 0.053 | 1.13 ± 0.072 | 1.09 ± 0.055 | 1.15 ± 0.065 | 1.01 ± 0.081 | 0.99 ± 0.064
LM7 BONE | 0.989 ± 0.039 | 0.966 ± 0.075 | 1.08 ± 0.13 | 1.07 ± 0.069 | 1.01 ± 0.043 | 1.13 ± 0.24 | 0.869 ± 0.075 | 0.739 ± 0.11 | 0.969 ± 0.063 | 1.03 ± 0.016 | 1.06 ± 0.022 | 1.01 ± 0.056 | 1.12 ± 0.077 | 1.03 ± 0.13 | 0.5347 ± 0.0023 | 0.264 ± 0.024
143B BONE | 0.941 ± 0.078 | 0.997 ± 0.026 | 0.954 ± 0.068 | 1.02 ± 0.032 | 1.01 ± 0.016 | 1.01 ± 0.061 | 0.97 ± 0.054 | 0.995 ± 0.038 | 1.04 ± 0.049 | 1.06 ± 0.054 | 1.1 ± 0.071 | 1.09 ± 0.073 | 1.08 ± 0.071 | 1.09 ± 0.046 | 0.536 ± 0.069 | 0.159 ± 0.016
